From patent publication US20190185339A1, “Zirconium-Based Cluster as a Dentin Tubule Occlusion Agent” (Colgate-Palmolive Company, priority 2017, published 2019)

What was measured:
[1] = Stability in terms of gelation and flocculation (clear or gel); type: physicochemical; details: 1% zirconium oxychloride with varied arginine; incubated 1 day at 50° C., cooled to room temperature
Experimental: In some embodiments, the zirconium oxychloride cluster of the invention is stable at pH 2-6, 3-5, 3-4, 3.5-4.5 or 4-4.5, in solution, e.g., in aqueous solution.
(§1) Samples were prepared according to Table 1. Water was added to zirconium oxychloride (ZrOCl2.8H2O, MW 322.25) in a glass jar to yield a clear solution containing 1% zirconium oxychloride. Under stirring, L-arginine was slowly added to prevent clumping of arginine as well as large fluctuations in localized pH values. The solutions were incubated for 1 day at 50° C. Then the solutions were cooled to room temperature. Solid gel was formed in samples with the molar ratio of arginine to zirconium oxychloride of 2-4.
(§2) The zirconium oxychloride cluster was prepared as described in Example 1. The prepared zirconium oxychloride cluster was purified by gel permeability chromatograph (GPC). GPC column was prepared using Bio-Rad P2 gel with 5 μm particle size. Approximately 10 mL of prepared solution was filtered (0.45 μm) and loaded on the column using a HPLC pump at 0.2 mL/min. The mobile phase of the GPC chromatography was deionized water. Elution fractions were collected in intervals and monitored using SEC-RI. […] The pH of the GPC fraction (1160-1300 min) was 4.5. […] 10 g of this fraction was freeze dried to obtain purified powder for subsequent PXRD analysis.

[2] = pH of the zirconium oxychloride / arginine solutions; type: physicochemical
Experimental: as §1
A 100 g batch was prepared according to Table 2. 1% w/w zirconium oxychloride (ZrOCl2.8H2O, MW 322.25) and arginine were mixed in aqueous solution with the molar ratio of arginine to zirconium oxychloride of 1:1.
as §2

[3] = solution of zirconium oxychloride which is effective as an antiperspirant; cited from earlier work

Question: With `[Cl-].[Cl-].[O]=[Zr+2]` [Zr, zirconium oxychloride (ZrOCl2.8H2O, MW 322.25)] as the compound, how does the “appearance (clear / gel)” value [1] read?
Answer: clear

Question: And the pH ([2]; 1% zirconium oxychloride with varied arginine, incubated 1 day at 50° C., cooled to room temperature)?
Answer: 1.39

Question: What about the pH value ([2]; zirconium oxychloride alone, general statement) of the same compound?
Answer: < 2

Question: What about the pH of solution [3] of the same compound?
Answer: about 0.8
